Laboratory results: US4520024A, “Method of selectively blocking peripheral vascular serotonergic receptors” (Eli Lilly and Company, priority 1983, dated 1985)

Assays:
[1] = tested on: alpha-adrenergic receptors; test: Apparent dissociation constant, antagonism of norepinephrine-induced contraction in rat aorta; format: cell-based
From the text: (§1) Male Wistar rats (150-300 gram weight) were killed and their external jugular veins and thoracic aortas dissected free of connective tissue, cannulated in situ and placed in a modified Krebs' bicarbonate buffer in a suitable tissue bath. Two L-shaped 30-gauge stainless-steel hypodermic needles were inserted in each cannula and the dissected vessels gently pushed onto the needles. One needle was attached with thread to a stationary glass rod and the other to the transducer. [The procedure employed was that described by Hooker, Calkins and Fleisch, Blood Vessels, 14, 1, (1977) for use with circular smooth muscle preparations.]
(§2) The modified Krebs' bicarbonate buffer had the following makeup: (concentrations in millimoles): sodium chloride, 118.2; potassium chloride, 4.6; calcium chloride dihydrate, 1.6; potassium dihydrogenphosphate, 1.2; magnesium sulfate, 1.2; dextrose, 10.0; sodium bicarbonate, 24.8; and water q.s. to 1000 g. […] Isometric contractions were recorded as changes in grams of force on a Beckman Dynograph with Statham UC-3 transducers and microscale accessory attachment. […] Contraction to serotonin was evaluated in the jugular vein since this tissue produces marked responses to serotonin in the absence of alpha receptors--see Cohen and Wiley, J. Pharm. […] Alpha receptor antagonist activity was evaluated in the aorta. […]

[2] = tested on: conscious spontaneously hypertensive rats (SHR); test: In vivo studies, conscious SHR, mean arterial blood pressure; design: species or system rat; details: intraperitoneal, 10 mg./kg. dose level
From the text: Twenty-four week old SHR (325-425 g.) rats were anesthetized with halothane. They were then implanted with femoral arterial and venous catheters. The tips of the arterial and venous catheters were positioned in the abdominal aorta below the renal arteries and lower abdominal vena cava, respectively. The catheters were routed subcutaneously to an exit point at the base of the skull and then through a small leather harness fastened around the forequarters of each animal. The animals were allowed a 3-4 day recovery period after surgery. On the day before a given experiment, the rats to be used in that experiment were conditioned to the experimental surroundings for about 6 hours. In carrying out the determination, the harness on the back of each animal was connected to a spring-tether through which arterial and venous extension tubing were routed. The opposite end of the tubing was connected to a water tight swivel. This system permitted direct recording of blood pressure in conscious, free-moving animals. Mean arterial blood pressure was measured via a Statham strain gauge transducer and recorded on a multichannel oscillograph. The rats were equilibrated for at least 30 minutes prior to the initiation of the experimental protocol. During this equilibration period, the animals preened themselves and the blood pressure was quite labile. After this period, the animals appeared to sleep and pressure was stable. Following a control blood pressure measurement, the rats were dosed with ketanserin, benzoctamine, 1-(1-naphthyl)piperazine or the experimental vehicle via the intraperitoneal route. Blood pressure was monitored at various time intervals after dosing.

alpha1 receptor = test: In vivo studies, pithed SHR, pressor response to methoxamine; design: species or system rat; details: i.p., rank order among three drugs
Procedure: SHR were anesthesized with halothane, femoral arterial and venous catheters implanted as before and the trachea cannulated. Each rat was pithed by passing a steel rod through the right orbit and down the entire length of the spinal column. The steel rod remained in place for the duration of the experiment. Immediately after pithing, the rats were ventilated with room air via a rodent respirator which eliminated any anesthetic effects. […] The response was recorded and the blood pressure allowed to recover to control levels. […] The test drugs were prepared fresh daily and administered by the intraperitoneal route. Benzoctamine and 1-(1-naphthyl)piperazine were administered at a 10 mg./kg. dosage and ketanserin at a 1 mg./kg. dosage.

5HT2 receptors [3] = biological target: T1, 5HT2 receptors (Rattus norvegicus, UniProt P14842); test: Apparent dissociation constant, antagonism of serotonin-induced contraction in rat jugular vein; format: cell-based; design: from tissue; host or cells: whole animal: pithed SHR, vascular tissue in vivo; details: serotonin as agonist, antagonist incubated one hour, read-out: -log KB for 5HT2 receptors (converted)
T1 sequence (P14842 whole entry): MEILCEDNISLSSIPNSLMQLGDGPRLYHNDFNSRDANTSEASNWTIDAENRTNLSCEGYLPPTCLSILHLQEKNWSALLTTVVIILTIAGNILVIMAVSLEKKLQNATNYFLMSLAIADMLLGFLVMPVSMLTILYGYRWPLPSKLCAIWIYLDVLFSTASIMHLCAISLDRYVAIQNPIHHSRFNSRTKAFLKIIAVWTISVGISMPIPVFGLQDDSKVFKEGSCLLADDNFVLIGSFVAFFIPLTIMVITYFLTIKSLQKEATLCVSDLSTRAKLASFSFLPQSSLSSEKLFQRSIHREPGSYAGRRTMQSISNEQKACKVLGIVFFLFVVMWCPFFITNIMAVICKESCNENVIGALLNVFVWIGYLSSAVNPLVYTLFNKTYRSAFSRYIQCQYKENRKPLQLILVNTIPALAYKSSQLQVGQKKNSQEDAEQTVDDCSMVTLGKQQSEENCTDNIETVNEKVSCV
From the text: as §1, §2

5HT2 receptors [4] = biological target: T1, 5HT2 receptors; test: In vivo studies, pithed SHR, pressor response to serotonin; design: from tissue; host or cells: whole animal: pithed SHR, vascular tissue in vivo; details: i.p., rank order among three drugs
Procedure: SHR were anesthesized with halothane, femoral arterial and venous catheters implanted as before and the trachea cannulated. Each rat was pithed by passing a steel rod through the right orbit and down the entire length of the spinal column. The steel rod remained in place for the duration of the experiment. Immediately after pithing, the rats were ventilated with room air via a rodent respirator which eliminated any anesthetic effects. An equilibration period of 15 minutes was observed prior to control measurements and administration of drugs or vehicle i.p. Increasing doses of serotonin or methoxamine were injected i.v. 15 minutes after the equilibration period. The response was recorded and the blood pressure allowed to recover to control levels. […] The test drugs were prepared fresh daily and administered by the intraperitoneal route. Benzoctamine and 1-(1-naphthyl)piperazine were administered at a 10 mg./kg. dosage and ketanserin at a 1 mg./kg. dosage.

With `c1ccc2c(N3CCNCC3)cccc2c1` [1-(1-naphthyl)piperazine] the “-log KB for alpha-adrenergic receptors” value ([1]; rat thoracic aorta, norepinephrine as agonist, antagonist incubated one hour, 60 min) was 5.38, the “lower affinity for alpha-adrenergic receptors than for 5HT2 receptors” value ([1]; ratio of affinities, 5HT2 versus alpha-adrenergic) was “approximately 2000 fold” and the blood pressure lowering [2] was “ineffective as a blood pressure lowering agent”. The “inhibition in the pressor response to methoxamine” value (“inhibition in the pressor response” for short) (alpha1 receptor; 10 mg./kg.) was “the least” and the Kb (5HT2 receptors [3]) was 1.78 nM.
In the case of `CNCC12CCC(c3ccccc31)c1ccccc12` [benzoctamine], the blood pressure lowering [2] is reported as “lowered blood pressure as did ketanserin but to a lesser degree”, the “inhibition in the pressor response” value (alpha1 receptor; 10 mg./kg.) is reported as “second” and the “inhibition of the pressor response to serotonin” value (5HT2 receptors [4]; 10 mg./kg.) is reported as “then benzoctamine”.
For `O=C(c1ccc(F)cc1)C1CCN(CCn2c(=O)[nH]c3ccccc3c2=O)CC1` [ketanserin], the blood pressure lowering [2] was “produced the greatest fall in blood pressure”, the “inhibition in the pressor response” value (alpha1 receptor; 1 mg./kg.) was “greatest effect” and the “inhibition of the pressor response to serotonin” value (5HT2 receptors [4]; 1 mg./kg.) was “greatest”.
